Common to all, as to type: functional, cell-based
One experiment deals with A549. The experiment is described as follows: Cytotoxicity against human A549 cells after 2 days. The note with it: A549, 48 h.
The test system of another experiment is HCT-15. Nature of the experiment: Cytotoxicity against human HCT15 cells after 2 days. The note with it: HCT-15, 48 h.
Another experiment has as its system SF-539. Nature of the experiment: Cytotoxicity against human SF539 cells after 2 days. Particulars: SF-539, 48 h.
In another experiment the test system is SNB-19. Nature of the experiment: Cytotoxicity against human SNB19 cells after 2 days. Particulars: SNB-19, 48 h.

Structures are written as SMILES. In brackets after ≈: the same amount, converted by molar mass. Starred links: 1 amine or outer side, 2 acyl side, 3 side chain; linkers in the order of their positions; H or OH if unused. Non-standard residues stand in square brackets, D forms with d. Residues, ends and D or L forms follow the SMILES beside them. X1 = O=C(c1csc([C@H](Cc2ccccc2)N[*:1])n1)[*:2]; Met(O) = CS(=O)CC[C@H](N)C(=O)O

One may read the IC50 as the concentration that inhibits the measured activity by half. Read a high IC50 as a need for much substance.

On to `CSCC[C@@H]1NC(=O)[C@@H]2CCCN2C(=O)[C@@H]2CCCN2C(=O)[C@H](CCSC)NC(=O)c2csc(n2)[C@H](Cc2ccccc2)NC(=O)[C@@H]2CCCN2C1=O` [HALIGRAMIDE A] (cyclo(MPPMP[X1])), for which the concentration for half-maximal inhibition (IC50) in the experiment on A549 was 5.17 µg/mL (≈ 6.59 µM); with HCT-15, 15.6 µg/mL (≈ 19.9 µM); in the experiment with SF-539, 9 µg/mL (≈ 11.5 µM); with SNB-19, 9.08 µg/mL (≈ 11.6 µM).
Consider `CSCC[C@@H]1NC(=O)[C@@H]2CCCN2C(=O)[C@@H]2CCCN2C(=O)[C@H](CC[S+](C)[O-])NC(=O)c2csc(n2)[C@H](Cc2ccccc2)NC(=O)[C@@H]2CCCN2C1=O` (stereo partly drawn) [HALIGRAMIDE B] (cyclo(MP[X1][Met(O)]PP)), for which the half-inhibitory concentration (IC50) is 3.89 µg/mL (≈ 4.86 µM) in the experiment on A549, 8.82 µg/mL (≈ 11 µM) in the experiment on HCT-15, 5.01 µg/mL (≈ 6.26 µM) in the experiment with SF-539 and 6.56 µg/mL (≈ 8.2 µM) with SNB-19.
